Experimental data reported in patent US20150105252A1, “SUBSTITUTED PYRAZOLES AS HERBICIDES” (E I DU PONT DE NEMOURS AND COMPANY, priority 2013, published 2015).

What was measured:
Assay in all cases: Test F preemergence
barnyardgrass = assay type: in vivo, Echinochloa crus-galli
Text: (§1) Seeds of plant species selected from corn (Zea mays), soybean (Glycine max), velvetleaf (Abutilon theophrasti), lambsquarters (Chenopodium album), wild poinsettia (Euphorbia heterophylla), pigweed, palmer (palmer pigweed, Amaranthus palmeri), common waterhemp (Amaranthus rudis), surinam grass (Brachiaria decumbens), large crabgrass (Digitaria sanguinalis), crabgrass, Brazil (Brazilian crabgrass, Digitaria horizontalis), fall panicum (Panicum dichotomiflorum), giant foxtail (Setaria faberii), green foxtail (Setaria viridis), goosegrass (Eleusine indica), johnsongrass (Sorghum halepense), common ragweed (Ambrosia elation), barnyardgrass (Echinochloa crus-galli), southern sandbur (Cenchrus echinatus), arrowleaf sida (Sida rhombifolia), Italian ryegrass (Lolium multiflorum), dayflower, VA (Virginia (VA) dayflower, Commelina virginica), field bindweed (Convolvulus arvensis), cocklebur (common cocklebur, Xanthium strumarium), morningglory (Ipomoea coccinea), nightshade (eastern black nightshade, Solanum ptycanthum), kochia (Kochia scoparia), yellow nutsedge (Cyperus esculentus), and hairy beggarticks (Bidens pilosa), were planted into a silt loam soil and treated preemergence with test chemicals formulated in a non-phytotoxic solvent mixture which included a surfactant.
(§2) At the same time, plants from these crop and weed species and also horseweed (Canada horseweed, Conyza canadensis), smartweed (ladysthumb smartweed, Polygonum persicaria), waterhemp_RES1, (ALS & Triazine resistant common waterhemp, Amaranthus rudis), and waterhemp_RES2, (ALS & HPPD resistant common waterhemp, Amaranthus rudis) were treated with postemergence applications of test chemicals formulated in the same manner. Plants ranged in height from 2 to 18 cm for postemergence treatments (1- to 4-leaf stage). Treated plants and controls were maintained in a greenhouse for 14 to 21 days, after which time all species were compared to controls and visually evaluated. Plant response ratings, summarized in Table F, are based on a scale of 0 to 100 where 0 is no effect and 100 is complete control. A dash (-) response means no test result.

Surinam grass = assay type: in vivo, Brachiaria decumbens
Text: as §1, §2

southern sandbur = assay type: in vivo, Cenchrus echinatus
Text: as §1, §2

corn = assay type: in vivo, Zea mays
Text: as §1, §2

nightshade = assay type: in vivo, Solanum ptycanthum
Text: as §1, §2

field bindweed = assay type: in vivo, Convolvulus arvensis
Text: as §1, §2

[1] = Preemergence, 31 g ai/ha, scale 0 to 100
[2] = Preemergence, 62 g ai/ha, scale 0 to 100
[3] = Preemergence, 125 g ai/ha, scale 0 to 100
[4] = preemergence, 8 g ai/ha, scale 0 to 100, 100 is complete control
[5] = preemergence, 16 g ai/ha, scale 0 to 100, 100 is complete control
[6] = Preemergence, 16 g ai/ha, scale 0 to 100
[7] = Preemergence, 250 g ai/ha, scale 0 to 100

Row | SMILES | Plant response rating, Barnyardgrass (barnyardgrass; [2]) | Plant response rating, Barnyardgrass (barnyardgrass; [3]) | Plant response rating, Barnyardgrass (barnyardgrass; [4]) | Plant response rating, Barnyardgrass (barnyardgrass; [5]) | Plant response rating, Surinam Grass (Surinam grass; [2]) | Plant response rating, Surinam Grass (Surinam grass; [3]) | Plant response rating, Surinam Grass (Surinam grass; [4]) | Plant response rating, Surinam Grass (Surinam grass; [5]) | Plant response rating, Southern Sandbur (southern sandbur; [2]) | Plant response rating, Southern Sandbur (southern sandbur; [3]) | Plant response rating, Southern Sandbur (southern sandbur; [4]) | Plant response rating, Southern Sandbur (southern sandbur; [5]) | Plant response rating, Corn (corn; [2]) | Plant response rating, Corn (corn; [3]) | Plant response rating, Corn (corn; [4]) | Plant response rating, Corn (corn; [5]) | Plant response rating, Nightshade (nightshade; [2]) | Plant response rating, Nightshade (nightshade; [3]) | Plant response rating, Field Bindweed (field bindweed; [2]) | Plant response rating, Field Bindweed (field bindweed; [3]) | further results
1 | CCOc1cc(C(=O)NCC(F)(F)F)nn1Cc1ccnc(C(F)(F)F)c1 [Compound 104] | 100 | 100 | 10 | 20 | 75 | 80 | 0 | 10 | 80 | 90 | 0 | 0 | 50 | 60 | 0 | 0 | 100 | 100 | 50 | 95 | Plant response rating, Barnyardgrass (barnyardgrass; [1]): 50; Plant response rating, Surinam Grass (Surinam grass; [1]): 35; Plant response rating, Southern Sandbur (southern sandbur; [1]): 20; Plant response rating, Corn (corn; [1]): 30; Plant response rating, Nightshade (nightshade; [1]): 100; Plant response rating, Nightshade (nightshade; [4]): 0; Plant response rating, Nightshade (nightshade; [5]): 65; Plant response rating, Field Bindweed (field bindweed; [1]): 30; Plant response rating, Field Bindweed (field bindweed; [4]): 0; Plant response rating, Field Bindweed (field bindweed; [5]): 10
2 | CCNC(=O)c1cc(CCCl)n(Cc2ccnc(C(F)(F)F)c2)n1 [Compound 179] | 20 | 50 | 0 |  | 20 | 60 | 0 |  | 0 | 35 | 0 |  | 30 | 30 | 0 |  | 85 | 100 | 50 | 75 | Plant response rating, Barnyardgrass (barnyardgrass; [1]): 15; Plant response rating, Surinam Grass (Surinam grass; [1]): 20; Plant response rating, Southern Sandbur (southern sandbur; [1]): 0; Plant response rating, Corn (corn; [1]): 20; Plant response rating, Nightshade (nightshade; [1]): 65; Plant response rating, Nightshade (nightshade; [4]): 0; Plant response rating, Field Bindweed (field bindweed; [1]): 5; Plant response rating, Field Bindweed (field bindweed; [4]): 0
3 | CCNC(=O)c1cc(CC)n(Cc2ccnc(C(F)(F)F)c2)n1 [Compound 196] | 10 | 65 | 0 | 0 | 25 | 70 | 0 | 0 | 10 | 40 | 0 | 0 | 0 | 25 | 0 | 0 | 75 | 95 | 75 | 85 | Plant response rating, Barnyardgrass (barnyardgrass; [6]): 0; Plant response rating, Nightshade (nightshade; [6]): 50; Plant response rating, Nightshade (nightshade; [4]): 0; Plant response rating, Nightshade (nightshade; [5]): 35; Plant response rating, Field Bindweed (field bindweed; [6]): 20; Plant response rating, Field Bindweed (field bindweed; [4]): 5; Plant response rating, Field Bindweed (field bindweed; [5]): 10
4 | Cc1cc(C(=O)NC(C)C)nn1Cc1ccnc(C(F)(F)F)c1 [Compound 197] | 0 | 0 | 0 | 0 | 20 | 20 | 0 | 0 | 0 | 15 | 0 | 0 | 0 | 20 | 0 | 0 | 30 | 70 | 50 | 80 | Plant response rating, Barnyardgrass (barnyardgrass; [6]): 0; Plant response rating, Nightshade (nightshade; [6]): 20; Plant response rating, Nightshade (nightshade; [4]): 0; Plant response rating, Nightshade (nightshade; [5]): 10; Plant response rating, Field Bindweed (field bindweed; [6]): 35; Plant response rating, Field Bindweed (field bindweed; [4]): 10; Plant response rating, Field Bindweed (field bindweed; [5]): 15
5 | CCc1cc(C(=O)NC2CC2)nn1Cc1ccnc(OCC(F)(F)F)c1 [Compound 200] | 25 | 20 |  | 0 | 5 | 65 |  | 0 | 0 | 15 |  | 0 | 0 | 0 |  | 0 | 20 | 75 | 0 | 50 | Plant response rating, Barnyardgrass (barnyardgrass; [7]): 50; Plant response rating, Barnyardgrass (barnyardgrass; [6]): 15; Plant response rating, Surinam Grass (Surinam grass; [7]): 95; Plant response rating, Southern Sandbur (southern sandbur; [7]): 60; Plant response rating, Corn (corn; [7]): 35; Plant response rating, Nightshade (nightshade; [7]): 98; Plant response rating, Nightshade (nightshade; [6]): 0; Plant response rating, Field Bindweed (field bindweed; [7]): 60; Plant response rating, Field Bindweed (field bindweed; [6]): 0; Plant response rating, Field Bindweed (field bindweed; [5]): 0
